Results published in US11555055B2, “Peptide inhibitors of insulin-degrading enzyme” (The Regents of the University of California, priority 2017, dated 2023).
Where a SMILES comes first, the peptide text is derived from it. Bridges are numbered along the chain shown (N, C = ends).

Biological target: T1, IDE (Homo sapiens, UniProt P14735)
T1 construct: made in house; host or cells: bacteria
T1 sequence (P14735 1-1019): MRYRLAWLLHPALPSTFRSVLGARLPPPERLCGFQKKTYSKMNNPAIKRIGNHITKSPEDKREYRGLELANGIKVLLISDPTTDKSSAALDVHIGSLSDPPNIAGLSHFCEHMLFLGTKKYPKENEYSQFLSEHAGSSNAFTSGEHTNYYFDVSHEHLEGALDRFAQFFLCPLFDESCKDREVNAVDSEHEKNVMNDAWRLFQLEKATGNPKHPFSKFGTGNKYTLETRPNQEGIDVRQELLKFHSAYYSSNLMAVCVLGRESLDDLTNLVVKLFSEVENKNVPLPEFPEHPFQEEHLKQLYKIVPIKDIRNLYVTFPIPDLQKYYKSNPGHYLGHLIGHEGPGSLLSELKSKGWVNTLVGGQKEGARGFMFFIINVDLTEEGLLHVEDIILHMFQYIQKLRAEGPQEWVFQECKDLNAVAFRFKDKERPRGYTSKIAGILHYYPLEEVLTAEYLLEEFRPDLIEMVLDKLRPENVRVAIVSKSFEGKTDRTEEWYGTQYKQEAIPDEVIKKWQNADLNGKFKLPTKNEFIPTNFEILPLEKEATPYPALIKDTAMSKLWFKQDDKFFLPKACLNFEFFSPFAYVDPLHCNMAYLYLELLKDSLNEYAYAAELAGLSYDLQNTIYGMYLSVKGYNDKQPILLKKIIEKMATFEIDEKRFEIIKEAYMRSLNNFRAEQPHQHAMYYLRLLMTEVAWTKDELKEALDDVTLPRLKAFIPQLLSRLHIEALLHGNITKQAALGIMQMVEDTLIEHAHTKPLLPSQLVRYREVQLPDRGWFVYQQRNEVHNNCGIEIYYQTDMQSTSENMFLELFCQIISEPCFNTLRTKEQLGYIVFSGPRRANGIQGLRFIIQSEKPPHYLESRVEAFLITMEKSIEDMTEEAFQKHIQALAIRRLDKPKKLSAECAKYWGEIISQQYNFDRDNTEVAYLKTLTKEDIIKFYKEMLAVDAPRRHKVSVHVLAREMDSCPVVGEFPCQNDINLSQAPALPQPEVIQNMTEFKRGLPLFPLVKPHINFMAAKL
Assay: Vulnerability of peptides to degradation by IDE: potency after 0 or 4 h pre-incubation with IDE, FRET1 assay
Type: biochemical
Settings: 4-h incubation with IDE
From the text: FIG. 2. Vulnerability of peptides to degradation by IDE assessed by activity assays.
Because IDE is a peptidase, it was critical to determine whether the peptides were degraded by IDE over time. […] Because this peptide is capable of forming a disulfide bond between its two cysteines, but was not deliberately cyclized prior to testing, we suspect that the peptide (and related variants) may have cyclized over time, contributing to its stability. […]
Degradation Assays—IDE activity was quantified by monitoring the degradation of (7-methoxycoumarin-4-yl)acetic acid-[…](2,4-dinitrophenyl) (FRET1, 5 μM) (49,55), fluoresceinated and biotinylated amyloid β-protein (FAβB; 500 nM) or recombinant human insulin (50 nM) in PBS supplemented with 0.05% BSA. FRET1 degradation was measured by changes in fluorescence (λex=340 nm, λem=420 nm); FAβB degradation was monitored by fluorescence polarization (λex=488 nm, λem=525 nm), as described (56); and insulin degradation was quantified by ELISA. […] For quantitation of insulin degradation in primary murine skin fibroblasts, cells (1×10^5/well) were plated in 96-well plates and maintained in DMEM supplemented with 10% fetal bovine serum (FBS), 2 mM glutamine, penicillin and streptomycin. […]

increase in potency at the 4-h time point relative to t=0: 1 fold
Compound: CC(C)C[C@H](NC(=O)[C@H](CO)NC(=O)[C@@H](N)CCC(N)=O)C(=O)N1CCC[C@H]1C(=O)N[C@@H](Cc1c[nH]c2ccccc12)C(=O)N[C@H]1CSSC[C@@H](C(=O)N[C@H](C(=O)N[C@H](C(N)=O)[C@@H](C)O)C(C)C)NC(=O)[C@H](Cc2c[nH]cn2)NC(=O)[C@@H]2CCCN2C(=O)[C@H](Cc2ccc(O)cc2)NC1=O [Peptide P12-3A] (H-QSLPWCYPHCVT-NH2; disulfide 6-10 (inferred))
